Consider five compounds from patent US12043602B2, “Fendiline derivatives” (The Board of Regents of the University of Texas System, priority 2019, dated 2024).

Data set [1] deals with T1, mGFP-K-RASG12V (Homo sapiens (Human), UniProt P01116, G12V). Nature of the data set: K-Ras mislocalization assay (confocal microscopy, Manders coefficient). Format: cell-based. Further details: key to Emax: Manders coefficient: fraction of mCherry-CAAX co-localizing with GFP-K-Ras. Particulars: MDCK cells; for IC50: 48 h treatment, read-out: IC50 (μM), KRASG12V mislocalization; for Emax: maximal effect, Manders coefficient. In outline:
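Readout is the Manders coefficient: share of mCherry-CAAX overlapping mGFP-K-RASG12V in confocal images, proportional to K-Ras mislocalization. Stable MDCK co-expressing lines were exposed 48 h to various drug concentrations or 0.1% DMSO vehicle, then paraformaldehyde-fixed.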

Data set [2] concerns MDCK cells co-expressing GFP-K-RASG12V and mCherry-CAAX.
In another data set the target is NRAS (Homo sapiens (Human), UniProt P01111). Particulars: background statement; cited from earlier work.
The target of the next data set is HRAS (Homo sapiens (Human), UniProt P01112). Particulars: background statement; cited from earlier work.
The test system of data set [3] is MiaPaCa-2 (Mut) pancreatic tumor cells. Nature of the data set: CyQUANT proliferation assay. The conditions noted are these: Table 11, pancreatic; read-out: IC50 (μM) MiaPaCa-2 (Mut). Format: cell-based. How it is done: (§1) Madine Darby Canine Kidney epithelial cells (MDCK) stably co-expressing mGFP-tagged full length oncogenic mutant K-Ras (GFP—K-RASG12V) or mGFP-LactC2 (peptide probe for phosphatidylserine) and mCherry-tagged to the amino acids 179-189 of H-RasC181S, C184S (mCherry-CAAX, localizes primarily to endomembranes) were grown in DMEM-high glucose/sodium pyruvate/10% FBS. The medium was supplemented with 1× Penicillin/Streptomycin for fluorescence microscopy assays, to avoid any microbial contamination from the test compounds added. KLE and Hec50 cells were maintained in DMEM-F-12 medium supplemented with 10% FBS. Hec-1A and Hec-1B cells were grown in McCoy's 5a medium supplemented with 10% FBS. ESS-1 cells were grown in RPMI 1640 medium supplemented with 20% FBS. MPanc96 cells were grown in DMEM supplemented with 10% FBS, MiaPaCa-2 cells in DMEM supplemented with 10% FBS and 2.5% horse serum and all other cell lines were grown in RPMI 1640 supplemented with 10% FBS. All cancer cell media were supplemented with ×Penicillin/Streptomycin. All cell lines were grown at 37° C. with 5% CO2.
(§2) Cells were seeded in 96-well plates. After 24 h, fresh growth medium supplemented with 0.1% vehicle (DMSO), or various concentrations of drugs was added and cells were grown for 72 h. Cell numbers were quantified using the CyQUANT® Cell Proliferation Assay Kit (Molecular Probes, Life Technologies), according to the manufacturer's protocol. Fluorescence measurement was used as a measure of live cell number.

Data set [4] relates to NCI-H1299 (WT) lung tumor cells. The data set can be described thus: CyQUANT proliferation assay. In kind it is cell-based. The conditions noted are these: Table 11, lung; read-out: IC50 (μM) NCI H1299 (WT). As for the experimental part:
as §1, §2

The subject of data set [5] is Hec1A (Mut) endometrial tumor cells. The data set can be described thus: CyQUANT proliferation assay. Format: cell-based. The conditions noted are these: Table 11, endometrial; read-out: IC50 (μM) Hec1A (Mut). How it is done:
as §1, §2

For data set [6], the system named is Hec1B (Mut) endometrial tumor cells. Nature of the data set: CyQUANT proliferation assay. The conditions noted are these: Table 11, endometrial; read-out: IC50 (μM) Hec1B (Mut). In kind it is cell-based. As for the experimental part: as §1, §2
Data set [7] relates to CaCO-2 (WT) colon tumor cells. The data set can be described thus: CyQUANT proliferation assay. The conditions noted are these: Table 11, colon; read-out: IC50 (μM) Caco-2 (WT). In kind it is cell-based. As for the experimental part:
as §1, §2

Data set [8] has as its system SK-CO-1 (Mut) colon tumor cells. Nature of the data set: CyQUANT proliferation assay. Format: cell-based. Particulars: Table 11, colon; read-out: IC50 (μM) SK-CO-1 (Mut). As for the experimental part: as §1, §2
The subject of data set [9] is NCI H1975 (WT) lung tumor cells. Nature of the data set: CyQUANT proliferation assay. Further details: key to IC50 proliferation NCI H1975 (WT): NE—Not efficacious. In kind it is cell-based. As for the experimental part: as §1, §2
The subject of data set [10] is mutant KRAS expressing cancer cells. The conditions noted are these: at 30 μM; background statement; cited from earlier work.
In data set [11] the test system is MPanc96 (Mut) pancreatic tumor cells. Nature of the data set: CyQUANT proliferation assay. In kind it is cell-based. The conditions noted are these: Table 11, pancreatic; read-out: IC50 (μM) MPanc96 (Mut). As for the experimental part: as §1, §2
In data set [12] the test system is NCI-H23 (Mut) lung tumor cells. The data set can be described thus: CyQUANT proliferation assay. Format: cell-based. Also on record: key to IC50 proliferation NCI-H23 (Mut): NE—Not efficacious. How it is done: as §1, §2
Data set [13] deals with Ishikawa (WT) endometrial tumor cells. The data set can be described thus: CyQUANT proliferation assay. In kind it is cell-based. Also on record: key to IC50 proliferation Ishikawa (WT): NE—Not efficacious. The conditions noted are these: for IC50 proliferation Ishikawa (WT): 72 h. As for the experimental part: as §1, §2
The test system of data set [14] is MDCK cells co-expressing GFP-K-RASG12V and mCherry-CAAX. The data set can be described thus: Cytotoxicity in mislocalization screen (death of all cells in well). The conditions noted are these: drug caused death of all cells in well at 30 μM.
Data set [15] has as its system MOH (Mut) pancreatic tumor cells. The data set can be described thus: CyQUANT proliferation assay. Format: cell-based. Also on record: key to IC50 proliferation MOH (Mut): NE—Not efficacious. As for the experimental part:
as §1, §2

Data set [16] concerns the target T1, mGFP-K-RASG12V. Particulars: versus compound 6; background statement; cited from earlier work.
The subject of data set [17] is BxPC-3 (WT) pancreatic tumor cells. Nature of the data set: CyQUANT proliferation assay. Format: cell-based. Also on record: key to IC50 proliferation BxPC-3 (WT): NE—Not efficacious. As for the experimental part: as §1, §2
Data set [18] has as its system NCI H522 (WT) lung tumor cells. The data set can be described thus: CyQUANT proliferation assay. In kind it is cell-based. Further details: key to IC50 proliferation NCI H522 (WT): NE—Not efficacious. Particulars: for IC50 proliferation NCI H522 (WT): 72 h. As for the experimental part:
as §1, §2

The subject of data set [19] is ESS-1 (WT) endometrial tumor cells. The data set can be described thus: CyQUANT proliferation assay. In kind it is cell-based. Further details: key: NE—Not efficacious. Particulars: 72 h. How it is done: as §1, §2
In data set [20] the test system is SW1116 (Mut) colon tumor cells. Nature of the data set: CyQUANT proliferation assay. In kind it is cell-based. Also on record: key: NE—Not efficacious. Particulars: 72 h. As for the experimental part: as §1, §2
In data set [21] the test system is H1925 (WT) lung tumor cells. The data set can be described thus: CyQUANT proliferation assay. In kind it is cell-based. Also on record: key: NE—Not efficacious. The conditions noted are these: 72 h. As for the experimental part:
as §1, §2

Data set [22] relates to KLE (WT) endometrial tumor cells. Nature of the data set: CyQUANT proliferation assay. In kind it is cell-based. Further details: key: NE—Not efficacious. The conditions noted are these: 72 h. How it is done: as §1, §2
The test system of data set [23] is HPAC (Mut) pancreatic tumor cells. The data set can be described thus: CyQUANT proliferation assay. In kind it is cell-based. Also on record: key to IC50 proliferation HPAC (Mut): NE—Not efficacious. The conditions noted are these: 72 h. How it is done:
as §1, §2

Read-outs that look alike come from different tables or passages of the source.

One may read the IC50 as the concentration that gives 50% inhibition. For the compound `C[C@@H](NCCC(c1ccccc1)c1ccccc1)c1ccccc1` [AVA08, R-Fendiline, reference compound], the IC50 on mGFP-K-RASG12V [1] is 5.59 µM. At mGFP-K-RASG12V [1] (48 h), the Emax is on record as 0.811. For the same compound, the “Cytotoxic at 30 μM” value in [2] is “Yes”. Further, the “effect on the PM localization of NRAS” value at NRAS is on record as “no effect”. Further, at HRAS, the “effect on the PM localization of HRAS” value is given as “no effect”.
As to `COc1ccc([C@@H](C)N(CC=C(c2ccccc2)c2ccccc2)CC=C(c2ccccc2)c2ccccc2)cc1` [Compound 7, reference compound], the IC50 in [3], in data set [4], in [5], in data set [6], in data set [7] and in data set [8] was over 30 µM throughout. The half-inhibitory concentration (IC50) is over 30 µM in [9] (Table 11, lung); 0.5 µM on mGFP-K-RASG12V [1]; over 30 µM in [11]; over 30 µM in data set [12] (Table 11, lung, read-out: IC50 (μM) NCI H23 (Mut)); over 30 µM in data set [13] (Table 11, endometrial, read-out: IC50 (μM) Ishikawa (WT)); over 30 µM in data set [15] (Table 11, pancreatic, read-out: IC50 (μM) MOH (Mut)). The 50% inhibitory concentration (IC50) in data set [17] (Table 11, pancreatic, read-out: IC50 (μM) BxPC-3 (WT)) is over 30 µM; in [18] (Table 11, lung, read-out: IC50 (μM) NCI H522 (WT)) it was over 30 µM. The compound further registered an Emax at mGFP-K-RASG12V [1] (48 h) of 0.74 ± 0.03. Also, in [10], the “capability to kill mutant KRAS expressing cancer cells” value is given as “no capability to kill”. For the same compound, in data set [14], the “Cytotoxic at 30 μM” value was “did not show any cytotoxic and No”. The fold increased potency at mGFP-K-RASG12V [16] is on record as 10 fold.
For the compound `COc1ccc([C@@H](C)N(CC=C(c2ccccc2)c2ccccc2)CCN2CC2)cc1` [NY0438, (R)-N-(2-(aziridin-1-yl)ethyl)-N-(1-(4-methoxyphenyl)ethyl)-3,3-diphenylprop-2-en-1-amine], the half-inhibitory concentration (IC50) on mGFP-K-RASG12V [1] stood at 5.1 µM. This compound showed an Emax at mGFP-K-RASG12V [1] (48 h) of 0.754. Besides, the “Cytotoxic at 30 μM” value in data set [2] was “No”.
Turning to `CN1CCN(CCN(CC=C(c2ccccc2)c2ccccc2)C2(c3ccccc3)CC2)CC1` [NY0443, N-(3,3-diphenylallyl)-N-(2-(4-methylpiperazin-1-yl)ethyl)-1-phenylcyclopropanamine], the “IC50 proliferation NCI H1975 (WT)” value in data set [9] (72 h) was “NE”. On mGFP-K-RASG12V [1], the IC50 turned out to be 0.91 µM. Further, the “IC50 proliferation Ishikawa (WT)” value in data set [13] is reported as “NE”. Moreover, the “Cytotoxic at 30 μM” value in [14] is “Yes”. In data set [19], the “IC50 proliferation ESS-1 (WT)” value is “NE”. For the same compound, in data set [18], the “IC50 proliferation NCI H522 (WT)” value is on record as “NE”.
Broadly, the EC50 is the concentration needed to bring the measured effect to its halfway point. With `CN1CCN(CCN(CC=C(c2ccccc2)c2ccccc2)[C@@H]2C[C@H]2c2ccccc2)CC1` [NY0590, (1R,2S)-N-(3,3-diphenylallyl)-N-(2-(4-methylpiperazin-1-yl)ethyl)-2-phenylcyclopropan-1-amine], the EC50 on mGFP-K-RASG12V [1] (batch 4 compounds, 48 h, title calls it IC50, read-out: EC50) stood at 945 nM. The same compound yielded an Emax at mGFP-K-RASG12V [1] (48 h) of 0.893. The “IC50 proliferation NCI-H23 (Mut)” value in data set [12] (72 h) is on record as “NE”. Further, in data set [13], the “IC50 proliferation Ishikawa (WT)” value is recorded as “NE”. The “Cytotoxic at 30 μM” value in data set [14] is on record as “Yes”. Also, the “IC50 proliferation MOH (Mut)” value in data set [15] (72 h) is “NE”. In data set [17] (72 h), the “IC50 proliferation BxPC-3 (WT)” value is reported as “NE”. In addition, the “Potency proliferation SW1116 (Mut)” value in [20] was “NE”. Moreover, the “Potency proliferation H1925 (WT)” value in data set [21] is on record as “NE”. Besides, the “IC50 proliferation KLE (WT)” value in data set [22] is “NE”. In [23], the “IC50 proliferation HPAC (Mut)” value is on record as “NE”. Further, the “IC50 proliferation NCI H522 (WT)” value in data set [18] was “NE”.
